Data as given in US5493008A, “Two non-contiguous regions contribute to nidogen binding to a single EGF-like motif of the laminin γ1 chain” (The University Of Virginia Patent Foundation, priority 1994, dated 1996).
Like-named read-outs stand apart in the source and are kept apart here. Where a SMILES comes first, the peptide text is derived from it.

Biological target: T1, nidogen (Mus musculus, UniProt P10493)
T1 sequence (P10493 29-1245): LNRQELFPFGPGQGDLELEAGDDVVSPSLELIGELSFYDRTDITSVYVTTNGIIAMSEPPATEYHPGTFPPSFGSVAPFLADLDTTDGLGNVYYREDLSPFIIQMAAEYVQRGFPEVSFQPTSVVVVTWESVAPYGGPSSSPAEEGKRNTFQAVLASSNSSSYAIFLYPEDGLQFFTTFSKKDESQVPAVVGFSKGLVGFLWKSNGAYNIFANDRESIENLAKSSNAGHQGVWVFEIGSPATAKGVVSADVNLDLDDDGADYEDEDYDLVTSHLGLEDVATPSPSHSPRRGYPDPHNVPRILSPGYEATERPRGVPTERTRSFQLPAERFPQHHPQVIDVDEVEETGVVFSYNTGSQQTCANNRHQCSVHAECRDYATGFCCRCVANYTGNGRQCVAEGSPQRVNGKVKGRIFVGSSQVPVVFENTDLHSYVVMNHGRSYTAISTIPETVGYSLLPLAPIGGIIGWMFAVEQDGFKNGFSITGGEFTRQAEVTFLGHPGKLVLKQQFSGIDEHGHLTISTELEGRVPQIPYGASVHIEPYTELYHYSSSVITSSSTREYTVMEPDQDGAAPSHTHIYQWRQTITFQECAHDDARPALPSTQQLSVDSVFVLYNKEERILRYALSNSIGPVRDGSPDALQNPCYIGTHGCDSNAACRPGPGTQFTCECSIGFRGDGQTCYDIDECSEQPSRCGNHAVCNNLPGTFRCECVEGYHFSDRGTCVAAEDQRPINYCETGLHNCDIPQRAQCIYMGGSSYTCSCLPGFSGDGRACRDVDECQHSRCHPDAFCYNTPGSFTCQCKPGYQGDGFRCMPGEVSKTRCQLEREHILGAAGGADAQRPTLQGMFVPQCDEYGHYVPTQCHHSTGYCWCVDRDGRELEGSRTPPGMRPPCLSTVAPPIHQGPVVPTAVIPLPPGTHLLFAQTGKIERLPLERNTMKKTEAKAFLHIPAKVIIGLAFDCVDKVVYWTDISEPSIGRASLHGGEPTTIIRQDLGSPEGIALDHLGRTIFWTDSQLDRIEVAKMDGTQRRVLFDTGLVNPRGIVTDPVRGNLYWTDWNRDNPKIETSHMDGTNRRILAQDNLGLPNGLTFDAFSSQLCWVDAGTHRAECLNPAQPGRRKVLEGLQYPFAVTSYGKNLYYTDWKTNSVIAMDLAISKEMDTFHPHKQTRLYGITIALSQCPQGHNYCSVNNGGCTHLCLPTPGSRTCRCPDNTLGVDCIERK
Assay: Radioligand competition assay: inhibition of 125I-laminin fragment P1 binding to nidogen
Conditions: for inhibitory activity in words: laminin-nidogen binding competition
Description: A radioligand competition assay was used for measurement of relative binding affinities (Mann K. et al. (1988), Eur. J. Biochem., 178, 71-80; Fox, J. W. et al. (1991), EMBO J., 10, 3137-3146). A fixed concentration of recombinant nidogen (0.2 nM) was incubated overnight at 4° C. with inhibitors at varying concentrations, followed by the addition of ^125 I-labeled laminin fragment P1 (0.01 nM; 10,000-20,000 c.p.m.) for the same incubation period. Bound and non-bound fragment P1 was then separated by antibodies against nidogen. Competitor concentrations causing 50% inhibition (IC50) were determined from dose-response profiles. […] IC50 values compared from different assays were normalized to a single fragment P1 value.

[1] = Table II, synthetic loops of EGF-like repeat 4 and smaller synthetic and proteolytic fragments, read-out: IC50 (inhibitory capacity)

SMILES	IC50 [1]	inhibitory activity in words	other results
CC(C)C[C@H](NC(=O)[C@H](CS)NC(=O)[C@H](CCC(=O)O)NC(=O)CNC(=O)[C@@H](NC(=O)[C@H](CC(C)C)NC(=O)[C@H](CCCNC(=N)N)NC(=O)[C@H](CC(N)=O)NC(=O)[C@H](CS)NC(=O)[C@H](CC(N)=O)NC(=O)CNC(=O)[C@@H](NC(=O)[C@H](C)NC(=O)[C@H](CC(N)=O)NC(=O)[C@@H]1CCCN1C(=O)[C@@H](N)CC(=O)O)C(C)C)[C@@H](C)O)C(=O)O [E2, DPNAVGNCNRLTGECL] (H-DPNAVGNCNRLTGECL-OH; C-terminus assumed)	3 µM	–	–
NC(=O)CC[C@H](NC(=O)[C@H](CS)NC(=O)[C@@H]1CCCN1)C(=O)N[C@@H](CS)C(=O)N[C@@H](CC(N)=O)C(=O)O [E3, PCQCN] (H-PCQCN-OH; N-terminus assumed)	> 96 µM	inactive	–
CC[C@H](C)[C@H](NC(=O)[C@H](CC(N)=O)NC(=O)[C@H](CC(=O)O)NC(=O)[C@H](CC(N)=O)NC(=O)[C@H](CS)NC(=O)[C@H](CCC(N)=O)NC(=O)[C@H](CS)NC(=O)[C@@H]1CCCN1)C(=O)N[C@@H](CC(=O)O)C(=O)N1CCC[C@H]1C(=O)N[C@@H](CC(N)=O)C(=O)N[C@@H](C)C(=O)N[C@H](C(=O)NCC(=O)N[C@@H](CC(N)=O)C(=O)N[C@@H](CS)C(=O)N[C@@H](CC(N)=O)C(=O)N[C@@H](CCCNC(=N)N)C(=O)O)C(C)C [T1, PCQCNDNTDPNAVGNCNR]	–	undiminished activity	–
CC[C@H](C)[C@H](NC(=O)[C@H](CC(N)=O)NC(=O)[C@H](CC(=O)O)NC(=O)[C@H](CC(N)=O)NC(=O)[C@H](CS)NC(=O)[C@H](CCC(N)=O)NC(=O)[C@H](CS)NC(=O)[C@@H]1CCCN1)C(=O)N[C@@H](CC(=O)O)C(=O)N1CCC[C@H]1C(=O)N[C@@H](CC(N)=O)C(=O)N[C@@H](C)C(=O)N[C@H](C(=O)NCC(=O)N[C@@H](CC(N)=O)C(=O)N[C@@H](CS)C(=O)N[C@@H](CC(N)=O)C(=O)N[C@@H](CCCNC(=N)N)C(=O)N[C@@H](CC(C)C)C(=O)N[C@H](C(=O)NCC(=O)N[C@@H](CCC(=O)O)C(=O)N[C@@H](CS)C(=O)N[C@@H](CC(C)C)C(=O)O)[C@@H](C)O)C(C)C [loop a,b, non-oxidized] (H-PCQCNDNIDPNAVGNCNRLTGECL-OH; N-terminus and C-terminus assumed)	–	–	IC50 higher / less active than fragment P1 (relative to laminin fragment P1): 5,000 fold
CC[C@H](C)[C@@H]1NC(=O)[C@H](CC(N)=O)NC(=O)[C@H](CC(=O)O)NC(=O)[C@H](CC(N)=O)NC(=O)[C@@H]2CSSC[C@@H](C(=O)N[C@@H](CC(C)C)C(=O)O)NC(=O)[C@H](CCC(=O)O)NC(=O)CNC(=O)[C@H]([C@@H](C)O)NC(=O)[C@H](CC(C)C)NC(=O)[C@H](CCCNC(=N)N)NC(=O)[C@H](CC(N)=O)NC(=O)[C@H](CSSC[C@H](NC(=O)[C@@H]3CCCN3)C(=O)N[C@@H](CCC(N)=O)C(=O)N2)NC(=O)[C@H](CC(N)=O)NC(=O)CNC(=O)[C@H](C(C)C)NC(=O)[C@H](C)NC(=O)[C@H](CC(N)=O)NC(=O)[C@@H]2CCCN2C(=O)[C@H](CC(=O)O)NC1=O [loop a,b, oxidized] (HELM PEPTIDE1{P.C.Q.C.N.D.N.I.D.P.N.A.V.G.N.C.N.R.L.T.G.E.C.L}$PEPTIDE1,PEPTIDE1,2:R3-16:R3|PEPTIDE1,PEPTIDE1,4:R3-23:R3$$$V2.0)	–	–	IC50 (read-out: IC50): 0.4 µM
